The results in this text go back to publication PMC4559561, “Radioiodinated PARP1 tracers for glioblastoma imaging” (EJNMMI Research, 2015).

Data set [1] addresses T1, PARP1 high specific activity (HSA) enzyme (Homo sapiens, UniProt P09874).
T1 construct: purchased Trevigen, Gaithersburg, MD
The experiment in a line: PARP-1 IC50 determination, commercial colorimetric assay (Trevigen). It counts as biochemical. To be noted: 0.5 U PARP1 HSA enzyme, 10 min, histone-coated plates, triplicate. The protocol:
A commercially available colorimetric assay (Trevigen, Gaithersburg, MD) was used to measure PARP-1 activity in vitro in the presence of varying concentrations of the different iodo-[…]. […] All experiments were carried out in triplicate. […] All reaction mixtures were adjusted to a final volume of 50 μl, and a final concentration of 1 % DMSO in assay buffer. The remainder of the assay was performed according to the manufacturer's instructions. PARP1 activity was measured by absorbance at 450 nm in each well using a SpectraMax M5 spectrophotometer with SoftMax Pro software (Molecular Devices, Sunnyvale, CA).

The nature of data set [2]: Chemical hydrophobicity index (CHI) by reverse phase HPLC, Log P derived from CHI. It is filed as physicochemical. Conditions: for CHI (chromatographic hydrophobicity index): from HPLC retention time against standards. The protocol:
Chemical hydrophobicity indices (CHIs) were measured using procedures developed previously. Briefly, reverse phase HPLC was used to measure the retention times of a set of standards with known CHI. A standard curve was then created to calculate the CHIs of all iodo-PARPi based on the HPLC retention time.

Data set [3] can be described thus: Plasma protein fraction by rapid equilibrium dialysis in mouse serum. It counts as in vitro ADME. To be noted: 10 μM compound in mouse serum vs PBS, 37 °C, read-out: Plasma Free Fraction. The protocol:
The plasma protein fraction was determined using the Rapid Equilibrium Dialysis Device System (Life Technologies, Grand Island, NY) according to the manufacturer’s protocol. Membrane dialysis was performed with 10 μM of compound in mouse serum (500 μL) on one side of the membrane and PBS (750 μL) on the other side. The system was sealed with parafilm and incubated for 4 h at 37 °C on an orbital shaker set to 250 rpm. Thereafter, 400 μL of solution was taken from both sides, and samples were treated twice with an equal amount of AcN and vortexed to remove protein before HPLC analysis. After injection (100 μL), the I-PARPi peaks from each sample were then integrated and the protein bound fraction was determined. The data was analyzed using Prism 6.0c.
For orientation: Equilibrium dialysis compares concentrations on both sides of a semipermeable membrane.

Data set [4] has as its system U87 MG subcutaneous tumors. The experiment in a line: In vivo blocking study: PARPi-FL uptake in tumors, ex vivo epifluorescence imaging. On the set-up: species or system mouse. The source says:
One hour post injection, the mice were sacrificed and the tumors were resected and imaged with the IVIS spectrum fluorescence imaging system (PerkinElmer, Waltham, MA) using Living Image 4.4 software. The tumors were also imaged microscopically with the 5Live fluorescent confocal microscope using the 488 nm laser for PARPi-FL excitation.

The next data set has as its system U87 MG cells. Kind of data set: In vitro blocking study: competitive inhibition of PARPi-FL uptake. It counts as cell-based, human. To be noted: 20 min. The protocol: U87 MG cells were seeded into a 96-well plate in a concentration of 1 × 10^4 cells per well. After 24 h, the cells were incubated with either the fluorescent PARP1 inhibitor PARPi-FL (250 nM) alone or with one of the iodo-PARPi inhibitors at a 100-fold higher concentration (25 μM) for 20 min. […] All incubation solutions also included Hoechst 33342 nuclear stain (Sigma-Aldrich, St. Louis, MO). The cells were washed twice with media and once with PBS for 5 min each and imaged on an LSM 5Live confocal microscope (Zeiss, Oberkochen, Germany). All wells were imaged with the DAPI filter for the Hoechst staining and the FITC filter for the PARPi-FL staining. The DAPI and FITC channels were co-registered, and the green fluorescence in the location of the Hoechst staining was quantified for each image. The percent reduction in PARPi-FL uptake was calculated based on the level of fluorescence intensity seen in each image and normalized to the cells receiving no iodo-PARPi inhibitor. Experiments were performed in triplicate.

Data set [5] is described as follows: In vitro whole blood stability. It is filed as in vitro ADME. Conditions: mouse blood, 37 °C, radio-HPLC. The protocol: The in vitro stability was assessed by incubating 6 μCi [^131I]-PARPi in mouse blood for 0 to 60 min at 37 °C. At baseline, 15, 30, and 60 min, the samples were immediately placed on ice and mixed 1:1 with a solution of AcN/DMSO (250 μL) and then vigorously vortexed for 30 s to precipitate out serum protein. The sample was centrifuged at 3000 RCF for 3 min at 4 °C, and the supernatant was collected. This procedure was repeated three times, and the combined supernatants were analyzed by HPLC equipped with radioactive detector (Shimadzu, Kyoto, Japan), collecting samples every 30 s. Radioactivity of each fraction was measured on a Wizard 2470 Automatic Gamma Counter (Perkin Elmer, Waltham, MA), and the blood stability was analyzed using Prism 6.0c (GraphPad Software, La Jolla, CA).

Data set [6] can be described thus: Blood half-life by serial blood sampling. It counts as in vivo, mouse. To be noted: healthy athymic nude mice, 50 μCi i.v. On the procedure:
Blood half-life was determined by measuring the activity in serial blood samplings. Specifically, healthy female nude mice (8–10 weeks old, 20–25 g in weight, n = 3) were injected via the tail vein with 50 μCi [^131I]-I2-PARPi in 200 μL of solution PBS/PEG300 (10:1). The blood was sampled from the saphenous vein at 5, 15, 30, 60, 120, and 240 min post injection. The blood was weighed and radioactivity was measured on a Wizard 2470 Automatic Gamma Counter (Perkin Elmer, Waltham, MA). Measurements in counts per minute were calculated as the mean %ID/g. The blood half-life was calculated using Prism 6.0c (GraphPad Software, La Jolla, CA).

Data set [7] has as its system U87 MG subcutaneous xenografts. The experiment in a line: Biodistribution in U87 MG xenograft mice. It counts as in vivo, mouse. Conditions: U87 MG tumor-bearing mice, 2 h post intravenous injection. The protocol:
(§1) Biodistribution experiments were conducted on female nude mice (8–10 weeks old and 20–25 g in weight, n = 21) bearing U87 MG or U251 MG subcutaneous xenografts. The radiolabeled small molecule preparation ([…] of [^131I]-I2-PARPi in 200 μL of a solution 90 % PBS 10 % PEG300) was administrated via the lateral tail vein. To determine the optimal specific activity to achieve the highest tumor to organ ratio, various specific activities were tested (5, 50, and 250 mCi/μmol) in mice bearing U87 MG tumors. The compound was allowed to circulate for 2 h post injection at which time the mice were sacrificed and organs were harvested (n = 3). After determining the optimal specific activity, the optimal time for imaging was determined by testing the drug distribution in nude mice bearing U87 MG tumors at different time points. The drug was allowed to circulate for various times (1, 2, and 6 h), after which the mice were sacrificed (n = 3). The radioactive content in the tissue of interest (blood, tumor, muscle, bone, liver, spleen, kidney, heart, lung, pancreas, brain, skin, small intestine, large intestine, stomach, tail, thyroid, and feces) was measured on a Wizard 2470 Automatic Gamma Counter and the tissue-associated activity was calculated as the mean %ID/g.

For data set [8], the system named is U251 MG subcutaneous xenografts. Kind of data set: Biodistribution in U251 MG xenograft mice. It is filed as in vivo, mouse. Conditions: 2 h after tracer injection. On the procedure: as §1

Structures are written as SMILES. “And” between values parts separate entries of the source, which are not always exact repeats. Identical values can stand only once.

T1 sequence (P09874 whole entry): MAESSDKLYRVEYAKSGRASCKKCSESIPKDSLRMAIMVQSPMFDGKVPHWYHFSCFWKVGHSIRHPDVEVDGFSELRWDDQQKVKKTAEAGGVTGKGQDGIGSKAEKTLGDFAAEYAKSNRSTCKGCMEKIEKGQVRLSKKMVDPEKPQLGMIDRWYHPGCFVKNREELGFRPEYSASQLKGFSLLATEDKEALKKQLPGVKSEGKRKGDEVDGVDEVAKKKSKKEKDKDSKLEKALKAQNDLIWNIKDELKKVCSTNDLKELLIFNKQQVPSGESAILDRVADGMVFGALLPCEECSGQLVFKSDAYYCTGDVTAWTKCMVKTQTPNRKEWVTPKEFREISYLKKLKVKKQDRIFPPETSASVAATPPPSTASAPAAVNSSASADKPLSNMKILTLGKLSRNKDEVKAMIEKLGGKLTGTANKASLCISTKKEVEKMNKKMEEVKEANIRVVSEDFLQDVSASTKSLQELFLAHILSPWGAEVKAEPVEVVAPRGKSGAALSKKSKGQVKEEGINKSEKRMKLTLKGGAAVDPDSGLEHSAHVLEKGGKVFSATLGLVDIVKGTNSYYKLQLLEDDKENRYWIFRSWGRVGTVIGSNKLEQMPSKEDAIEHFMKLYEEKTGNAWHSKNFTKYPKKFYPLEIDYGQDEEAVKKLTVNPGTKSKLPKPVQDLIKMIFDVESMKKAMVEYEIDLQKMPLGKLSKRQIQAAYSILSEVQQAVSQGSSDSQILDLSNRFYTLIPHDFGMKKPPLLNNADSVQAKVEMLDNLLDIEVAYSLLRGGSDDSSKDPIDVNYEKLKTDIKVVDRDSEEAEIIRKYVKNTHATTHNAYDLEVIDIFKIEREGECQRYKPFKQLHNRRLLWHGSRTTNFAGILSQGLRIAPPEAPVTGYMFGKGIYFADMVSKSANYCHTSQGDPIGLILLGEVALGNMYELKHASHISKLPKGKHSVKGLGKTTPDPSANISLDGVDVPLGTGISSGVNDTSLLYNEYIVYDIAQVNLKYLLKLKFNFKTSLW

Consider `O=C(CCc1cccc(I)c1)N1CCN(C(=O)c2cc(Cc3n[nH]c(=O)c4ccccc34)ccc2F)CC1` [I5-PARPi, 4-(4-fluoro-3-(4-(3-(3-iodophenyl)propanoyl)piperazine-1-carbonyl)benzyl)phthalazin-1(2H)-one], for which half-maximal inhibition in data set [1] (IC50) required 107 ± 4 nM. In data set [2], the “CHI (chromatographic hydrophobicity index)” value is recorded as 71.6. Moreover, the fraction unbound at 4 h, 10 μM in data set [3] amounted to 0.078 ± 0.014.
`Cc1cc(C)n2c1C=C1C=CC(CCC(=O)N3CCN(C(=O)c4cc(Cc5n[nH]c(=O)c6ccccc56)ccc4F)CC3)=[N+]1[B-]2(F)F` [PARPi-FL, reference compound]: the “tumor fluorescence, average radiant efficiency” value in [4] (PARPi-FL 2.5 mg/kg alone) is 2.03 × 10^8 ± 1.84 × 10^7.
For `O=C(c1cc(Cc2n[nH]c(=O)c3ccccc23)ccc1F)N1CCN(C(=O)C2CC2)CC1` [Olaparib], in [2] (derived from CHI by equation), the logPCHI came out at 0.8. The “reduction of PARPi-FL uptake (fluorescence signal)” value in the data set on U87 MG cells (25 µM) is 73 ± 11%; in the data set with U87 MG cells (PARPi-FL 250 nM, inhibitor 25 μM (100-fold), U87 MG cells), 73 ± 10%.
For `O=C(c1cccc(I)c1)N1CCN(C(=O)c2cc(Cc3n[nH]c(=O)c4ccccc34)ccc2F)CC1` [I1-PARPi, 4-(4-fluoro-3-(4-(3-iodobenzoyl)piperazine-1-carbonyl)benzyl)phthalazin-1(2H)-one], the fraction unbound at 4 h, 10 μM in data set [3] was found to be 0.096 ± 0.015.
Turning to `O=C(c1ccc(I)cc1)N1CCN(C(=O)c2cc(Cc3n[nH]c(=O)c4ccccc34)ccc2F)CC1` [I2-PARPi, 4-(4-fluoro-3-(4-(4-iodobenzoyl)piperazine-1-carbonyl)benzyl)phthalazin-1(2H)-one], the fraction unbound at 4 h, 10 μM in data set [3] was 0.115 ± 0.001. Also, the “reduction of PARPi-FL tumor fluorescence in vivo” value in [4] (I2-PARPi 125 mg/kg 30 min before PARPi-FL 2.5 mg/kg, tumors resected 1 h post injection, vs PARPi-FL alone) is on record as 78 ± 4%.
For `O=C(Cc1ccc(I)cc1)N1CCN(C(=O)c2cc(Cc3n[nH]c(=O)c4ccccc34)ccc2F)CC1` [I4-PARPi, 4-(4-fluoro-3-(4-(2-(4-iodophenyl)acetyl)piperazine-1-carbonyl)benzyl)phthalazin-1(2H)-one], the IC50 – broadly, the midpoint of a concentration-inhibition curve – in data set [1] is 74 ± 5 nM. Besides, the “CHI (chromatographic hydrophobicity index)” value in [2] is given as 66.7. The fraction unbound at 4 h, 10 μM in data set [3] was 0.05 ± 0.003.
As for `O=C(c1ccc([131I])cc1)N1CCN(C(=O)c2cc(Cc3n[nH]c(=O)c4ccccc34)ccc2F)CC1` [[^131I]-I2-PARPi], in data set [5], the “in vitro blood stability” value is given as “stability of the drug over the course of 120 min”. For the same compound, in data set [6], the alpha blood half-life is reported as 14.3 min, the beta blood half-life turned out to be 94.6 min, the “share of alpha phase” value was determined as 96.25% and the “share of beta phase” value is listed as 3.75%. In addition, the “weighted blood half-life t1/2(weighted)” value in data set [6] came out at 17.1 min. In [7], this compound yielded an uptake in brain of 0.007 ± 0.002 %ID/g, an uptake in muscle of 0.04 ± 0.02 %ID/g and an uptake in tumor of 0.50 ± 0.08 %ID/g. In addition, in data set [8], the uptake in brain was 0.01 ± 0.00 %ID/g and 0.011 ± 0.003 %ID/g; the uptake in liver was 2.35 ± 0.57 %ID/g and 2.4 ± 0.6 %ID/g; the uptake in muscle was 0.03 ± 0.01 %ID/g and 0.033 ± 0.012 %ID/g; the uptake in thyroid turned out to be 0.24 ± 0.06 %ID/g. Also, the uptake in tumor in [8] worked out at 0.43 ± 0.06 %ID/g.
`O=C(CCc1ccc(I)cc1)N1CCN(C(=O)c2cc(Cc3n[nH]c(=O)c4ccccc34)ccc2F)CC1` [I6-PARPi, 4-(4-fluoro-3-(4-(3-(4-iodophenyl)propanoyl)piperazine-1-carbonyl)benzyl) phthalazin-1(2H)-one]: the midpoint of inhibition in data set [1], the IC50, lay at 47 ± 5 nM. Moreover, in [2], the “CHI (chromatographic hydrophobicity index)” value is given as 71.6. For the same compound, the fraction unbound at 4 h, 10 μM in data set [3] worked out at 0.047 ± 0.005.
The matching figures for `O=C(Cc1cccc(I)c1)N1CCN(C(=O)c2cc(Cc3n[nH]c(=O)c4ccccc34)ccc2F)CC1` [I3-PARPi, 4-(4-fluoro-3-(4-(2-(3-iodophenyl)acetyl)piperazine-1-carbonyl)benzyl)phthalazin-1(2H)-one]: 34 ± 3 nM, 66.7 and 0.07 ± 0.001.
